# From paper PMC7600679, “Benzoxazole-Based Metal Complexes to Reverse Multidrug Resistance in Bacteria” (Antibiotics, 2020)
# Like-named read-outs stand apart in the source and are kept apart here.
# Key:
# E. coli AG100 [1] = assay: Resistance modulation (MIC reduction) assay with CIP and TET; assay type: cell-based, Escherichia coli; details: for MIC of antibiotic in the absence of the compounds: antibiotic alone; for CIP MIC in combination with compounds: value is the MIC of ciprofloxacin
# Method: (§1) The resistance modulation effects of compounds with ciprofloxacin (CIP) and tetracycline (TET) antibiotics were evaluated by the MIC reduction method on the Gram-negative E. coli AG100, AG100 A, and the Gram-positive S. aureus ATCC and MRSA strains.
# (§2) The chemosensitizing activity of benzoxazole-type ligands and their metal complexes was determined based on the MIC values of the antibiotics in the presence of sub-inhibitory concentrations of the compounds (¼ MIC) in both Gram-negative and Gram-positive strains. The MICs were determined in strains by the two-fold broth microdilution method in 96-well plates, using serial dilutions of TET and CIP. The first four rows contained two-fold dilutions of antibiotics, and combinations of the TET and CIP and tested compounds were transferred into the last four rows. The 10^−4 dilution of an overnight bacterial culture in 50 μL of MHB was then measured to each well, except for the medium control wells. The plates were kept at 37 °C for 18 h. MIC values of antibiotics and their combination with tested compounds were detected by visual inspection.
# S. aureus MRSA 272123 = assay: as above; assay type: cell-based, Staphylococcus aureus; details: for MIC of antibiotic in the absence of the compounds: antibiotic alone; for Reduction of the MIC value of CIP: compound at a quarter of the MIC; for CIP MIC in combination with compounds: compound at ¼ MIC, value is the MIC of ciprofloxacin
# Method: as §1, §2
# [2] = tested on: Chromobacterium violaceum 026; assay: Minimum inhibitory concentration (broth microdilution, CLSI); assay type: cell-based; details: C. violaceum 026
# Method: (§3) The following bacterial strains were applied in the QS tests: C. violaceum 026 as sensor strain and E. cloacae 31298 isolated from clinical wound (used as N-acyl-homoserine lactone (AHL) producer); this strain induced pigment production by C. violaceum and is a model strain to study QS interactions.
# (§4) The minimum inhibitory concentrations (MICs) of compounds were determined in 96-well plates based on the Clinical and Laboratory Standard Institute guidelines (CLSI guidelines). The compounds were diluted in 100 μL of MHB. Then, 10^−4 dilution of an overnight bacterial culture in 100 μL of medium were added to each well, with the exception of the medium control wells.
# [3] = tested on: Enterobacter cloacae 31298; assay: as above; assay type: cell-based; details: E. cloacae 31298
# Method: as §3, §4
# E. coli AG100 [4] = assay: as above; assay type: cell-based, Escherichia coli
# Method: The strains were donated by Prof. Dr. Hiroshi Nikaido (Department of Molecular and Cell Biology and Chemistry, University of California, Berkeley, CA, USA).
# as §4
# E. coli AG100 A [5] = assay: as above; assay type: cell-based, Escherichia coli; details: 18 h
# Method: Wild-type E. coli K-12 AG100 strain (argE3 thi-1 rpsL xyl mtl Δ(gal-uvrB) supE44) expressing the AcrAB TolC EP at its basal level and its AcrAB-TolC deleted mutant E. coli K-12 AG100 A strain. The strains were donated by Prof. Dr. Hiroshi Nikaido (Department of Molecular and Cell Biology and Chemistry, University of California, Berkeley, CA, USA).
# as §4
# [6] = tested on: MRC-5 human embryonal lung fibroblast cell line; assay: Cytotoxicity assay (MTT); assay type: cell-based
# Method: The MRC-5 human embryonic lung fibroblast cell line (ATCC CCL-171; provider: LGC Promochem, Teddington, UK) was used in the experiments. The cells were cultivated in Eagle’s Minimal Essential Medium (EMEM; Sigma–Aldrich, St. Louis, MO, USA), supplemented with 1% non-essential amino acid mixture, 10% heat-inactivated fetal bovine serum, 2 mM L-glutamine, 1 mM Na-pyruvate, nystatin, and a penicillin–streptomycin mixture in concentrations of 100 U/L and 10 mg/L, respectively. The supplementary components were obtained from Sigma–Aldrich, St. Louis, MO, USA. The cell culture was kept in a humidified atmosphere (5% CO2, 95% air) at 37 °C.
# The activity of increasing concentrations of the compounds on cell growth was determined in 96-well flat-bottomed microtiter plates by two-fold serial dilutions of the benzoxazole derivatives. The adherent human embryonic lung fibroblast cells (10^4/well) was seeded in EMEM medium in 96-well microtiter plates for 4 h prior to the assay. The serial dilutions of the compounds were made in a separate plate, and then pipetted to the plates containing the MRC-5 cell line. Culture plates were incubated at 37 °C for 24 h; at the end of the incubation period, 20 μL of MTT (3-(4,5-dimethylthiazol-2-yl)-2,5-diphenyltetrazolium bromide) solution (from a 5 mg/mL stock solution) was measured to each well. After the incubation at 37 °C for 4 h, 100 μL of sodium dodecyl sulfate (SDS) solution (10% SDS in 0.01 M HCl) was added to each well to dissolve the formazan crystals and the samples were further incubated at 37 °C overnight. Cell growth was calculated by measuring the OD at 540 nm (ref. 630 nm) with a Multiscan EX ELISA reader. The cytotoxicity was expressed as IC50 values, defined as the inhibitory dose that reduces the growth of the cells exposed to the tested compounds by 50%.
# E. coli AG100 [7] = assay: Real-time ethidium bromide accumulation (efflux pump inhibition, AcrAB-TolC); assay type: cell-based, Escherichia coli; details: compounds at ¼ MIC, EB 1 μg/mL, minute 30
# Method: (§5) Since multidrug resistance EPs are very important factors contributing to multidrug resistance (MDR) in both Gram-positive and Gram-negative bacteria, the inhibition of these pumps could reverse the resistant phenotype and restore the activity of antibiotics. The effect of compounds on ethidium bromide (EB) accumulation was determined by the automated EB method. This assay was used to determine how much of the fluorescent dye and pump substrate EB was accumulated by the bacterial cells in the presence of the tested compounds. The real-time accumulation of EB was monitored for 30 min in both S. aureus and E. coli strains.
# (§6) The accumulation of the efflux pump substrate EB was monitored by the automated EB method using a LightCycler real-time thermocycler (LightCycler 1.5, Roche, Indianapolis, IN, USA). An aliquot of an overnight culture of the S. aureus strains in TSB medium was inoculated into fresh TSB medium, and it was incubated until it reached an optical density (OD) of 0.6 at 600 nm. In the case of E. coli strains, the medium applied in the assay was LB broth; the preparation of the inoculum was similar to the one of S. aureus. The cells were washed with phosphate buffered saline (PBS; pH 7.4) and centrifuged at 13,000 × g for 3 min, the pellets were re-suspended in PBS (pH 7.4), and the OD was calibrated to 0.6 at 600 nm. The compounds were measured at ¼ MIC concentration (in double-concentrated form) to the EB solution in PBS. The final concentration of EB was determined according to the MIC and the fluorescent signal produced by this amount of EB. In the case of all strains, the concentration of EB was 1 μg/mL. Then, 10 μL of the EB solution plus the compound were pipetted into standard glass capillary tubes of 20 µL maximum volume (Roche, Indianapolis, USA), and 10 μL of bacterial culture (OD of 0.6 at 600 nm) were transferred to the capillaries. The capillaries containing the samples were placed into the carousel, and the fluorescence was monitored at the FL-2 channel in every minute on a real-time basis.
# (§7) Based on the data obtained, the relative fluorescence index (RFI) of the last time point (minute 30) was determined as follows:RFI = (RFtreated − RFuntreated)/RFuntreated(1) where RFtreated is the relative fluorescence (RF) at the last time point of the EB retention curve in the presence of an inhibitor, and RFuntreated is the relative fluorescence at the last time point of the EB retention curve of the untreated control having the solvent control (DMSO).
# [8] = tested on: Staphylococcus aureus ATCC 25923; assay: Minimum inhibitory concentration (broth microdilution, CLSI); assay type: cell-based; details: S. aureus ATCC 25923, 18 h, visual inspection
# Method: (§8) The compounds were further investigated against two Gram-positive strains, S. aureus ATCC 25923 (MSSA), used as the methicillin susceptible reference strain, and the methicillin- and ofloxacin-resistant S. aureus 272123 clinical isolate (MRSA), which was given by Prof. Dr. Leonard Amaral (Institute of Hygiene and Tropical Medicine, Lisbon, Portugal).
# as §4
# E. coli AG100 A [9] = assay: Real-time ethidium bromide accumulation (efflux pump inhibition); assay type: cell-based, Escherichia coli; details: compounds at ¼ MIC, EB 1 μg/mL, minute 30
# Method: as §5, §6, §7
# S. aureus 272123 (MRSA) [10] = assay: Minimum inhibitory concentration (broth microdilution, CLSI); assay type: cell-based, Staphylococcus aureus; details: 18 h, visual inspection
# Method: as §8, §4
# S. aureus 272123 (MRSA) [11] = assay: Real-time ethidium bromide accumulation (efflux pump inhibition); assay type: cell-based, Staphylococcus aureus; details: compounds at ¼ MIC (3 at 12.5 µM), VER at 25 µM, EB 1 μg/mL, minute 30
# Method: as §5, §6, §7
# S. aureus ATCC 25923 = assay: as above; assay type: cell-based, Staphylococcus aureus; details: compounds at ¼ MIC, EB 1 μg/mL, minute 30
# Method: as §5, §6, §7
# [12] = E. coli AG100, 18 h, visual inspection, read-out: MIC
# [13] = E. coli AG100 A (AcrAB-TolC deleted), visual inspection
# [14] = Staphylococcus aureus, ATCC25923
# [15] = Escherichia coli, E. coli AG100, 18 h, visual inspection, read-out: MIC
SMILES,MIC [2],MIC [3],MIC (E. coli AG100 [4]; [12]),MIC (E. coli AG100 A [5]; [13]),Cytotoxic effect (class in words) ([6]; 24 h),IC50 ([6]; 24 h),Relative fluorescence index (RFI) (E. coli AG100 [7]),MIC [8],Relative fluorescence index (RFI) (E. coli AG100 A [9]),MIC (S. aureus 272123 (MRSA) [10]),Relative fluorescence index (RFI) (S. aureus 272123 (MRSA) [11]),Relative fluorescence index (RFI) (S. aureus ATCC 25923),MIC ([2]; Chromobacterium violaceum),MIC ([3]; Enterobacter cloacae),"MIC (E. coli AG100 A [5]; Escherichia coli, AG100A)","IC50 ([6]; Homo sapiens, MRC5, 24 h)","MIC [8, 14]",MIC (S. aureus 272123 (MRSA) [10]; Staphylococcus aureus),further results
"CN(C)[C@@H]1C(O)=C(C(N)=O)C(=O)[C@@]2(O)C(O)=C3C(=O)c4c(O)cccc4[C@@](C)(O)[C@H]3C[C@@H]12 [TET, tetracycline, reference compound]",–,–,–,–,–,–,–,–,–,–,–,–,–,–,–,–,–,–,MIC of antibiotic in the absence of the compounds (E. coli AG100 [1]): 50 µM; MIC of antibiotic in the absence of the compounds (S. aureus MRSA 272123): 6.25 µM
[O-]C(=Cc1nc2ccccc2o1)C(F)(F)F.[O-]C(=Cc1nc2ccccc2o1)C(F)(F)F.[Pd+2] [Compound 10],>100 µM,>100 µM,>100 µM,>100 µM,weak (IC50: 61–100),89.1 µM,−0.06,>100 µM,0,>100 µM,0,0,–,–,–,–,–,–,–
"O=C(Cc1nc2ccccc2o1)C(F)(F)F [Compound 1, 2-trifluoroacetonylbenzoxazole]",–,–,–,–,no (IC50 > 100 µM),–,−0.35,–,0,12.5 µM,−0.14,−0.11,> 100 µM,> 100 µM,50 µM,> 100 µM,25 µM,12.5 µM,"MIC (E. coli AG100 [4]; Escherichia coli, AG100, 18 h): 50 µM"
"O=C(O)c1cn(C2CC2)c2cc(N3CCNCC3)c(F)cc2c1=O [CIP, ciprofloxacin, reference compound]",–,–,–,–,–,–,–,–,–,–,–,–,–,–,–,–,–,–,MIC of antibiotic in the absence of the compounds (E. coli AG100 [1]): 0.016 µM; MIC of antibiotic in the absence of the compounds (S. aureus MRSA 272123): 12.5 µM
[O-]C(=Cc1nc2ccccc2o1)C(F)F.[O-]C(=Cc1nc2ccccc2o1)C(F)F.[Zn+2] [Compound 6],>100 µM,>100 µM,50 µM,12.5 µM,strong (IC50: 0–30),4.72 µM,0.08,25 µM,−0.15,12.5 µM,−0.02,0.08,–,–,–,–,–,–,–
"CN(C)CCCN1c2ccccc2Sc2ccc(Cl)cc21 [CPZ, Chlorpromazine, reference compound]",–,–,–,–,–,–,0.38,–,0.48,–,–,0.17,–,–,–,–,–,–,–
FC(F)(F)C1=Cc2oc3ccccc3[n+]2[Mg-2]2([O]1)[O]C(C(F)(F)F)=Cc1oc3ccccc3[n+]12 [Compound 9],–,–,–,–,no (IC50 > 100 µM),–,–,–,–,–,–,–,> 100 µM,> 100 µM,25 µM,> 100 µM,25 µM,6.25 µM,MIC (E. coli AG100 [4]; [15]): 50 µM; Reduction of the MIC of CIP (E. coli AG100 [1]; compound at ¼ MIC): 2 fold; CIP MIC in combination with compounds (E. coli AG100 [1]; compound at ¼ MIC): 0.008 µM; Reduction of the MIC value of CIP (S. aureus MRSA 272123): 2 fold; CIP MIC in combination with compounds (S. aureus MRSA 272123): 6.25 µM
[Cu+2].[O-]C(=Cc1nc2ccccc2o1)C(F)(F)F.[O-]C(=Cc1nc2ccccc2o1)C(F)(F)F [Compound 7],>100 µM,>100 µM,>100 µM,12.5 µM,weak (IC50: 61–100),76.1 µM,−0.06,12.5 µM,0.11,3.125 µM,−0.01,0.12,–,–,–,–,–,–,CIP MIC in combination with compounds (E. coli AG100 [1]; compound at ¼ MIC): 0.016 µM; Reduction of the MIC value of CIP (S. aureus MRSA 272123): 2 fold; CIP MIC in combination with compounds (S. aureus MRSA 272123): 6.25 µM
O=C(Cc1nc2ccccc2o1)C(F)(F)Cl [Compound 2],–,–,–,–,no (IC50 > 100 µM),–,0.17,–,−0.01,3.125 µM,−0.07,−0.07,> 100 µM,> 100 µM,25 µM,> 100 µM,12.5 µM,3.12 µM,MIC (E. coli AG100 [4]; [15]): 50 µM
